Measured values reported in patent publication US11040082B2, “Compositions and methods for treating colorectal cancer” (Georgia State University Research Foundation, Inc., priority 2014, dated 2021).

Tests used:
[1] = tested on: AOM/DSS-induced colon tumorigenesis in PepT1-KO mice; assay: AOM/DSS-induced colitis-associated cancer model, PepT1-KO mice, with or without KPV; type: in vivo, mouse; conditions: AOM 15 mg/kg, 3% DSS, + KPV vs AOM/DSS only
Protocol: (§1) Colonic tumor model: Colon cancer was induced as previously described with some modifications (Greten et al., Cell 118:285-96, 2004). Mice were intraperitoneally injected with AOM (Sigma-Aldrich, St. Louis, Mo.) diluted in PBS (10 mg/kg) and maintained on a regular diet and water for 5 days. The mice were then subjected to two cycles of DSS treatment (MP Biomedicals, Solon, Ohio, USA), with each cycle consisting of 2.5% DSS for 7 days followed by a 14-day recovery period with regular water. Mice were then sacrificed and their colons isolated for further experimentation. Colonic tumors were counted and measured using a dissecting microscope. The total sum of the area of each colon covered by tumor tissue was expressed as the tumor burden index.
(§2) In experiments designed to test the efficacy of KPV (Biopeptide Co. Inc., San Diego, Calif.), the above protocol was slightly modified. Five days after AOM injections (10 mg/kg to WT mice or 15 mg/kg to PepT1-KO mice), the WT and PepT1-KO mice were given 3% DSS with or without KPV for seven days. Following the 7-day treatment, the mice were given normal drinking water for 14 days, then 2.5% DSS (WT) or 3% DSS (PepT1-KO mice) with or without KPV for seven days. Following the 7-day treatment, the mice were given normal drinking water for 14 days. The KPV-treated group received 100 μM KPV in their drinking water along with the DSS during both DSS cycles.
(§3) Therefore, we hypothesized that KPV may help prevent colon tumorigenesis in the AOM/DSS-induced CAC model. To test this hypothesis, WT mice were treated with AOM/DSS or AOM/DSS+KPV (during the DSS cycles). […] In order to investigate any putative protective effect of KPV administration in pepT1-KO mice, the colitis-associated cancer protocol was slightly modified based on the relatively low penetrance of the disease in pepT1-deficient animals (FIG. 3). AOM concentration was increased to 15 mg/kg and DSS was increased to 3% in order to favor tumor development. […] Upregulation of colonic PepT1 may lead to increased interactions between bacterial peptides and intracellular innate immune receptors, including NOD receptors, thus triggering downstream activation of proinflammatory signaling pathways (Dalmasso et. al., Gastroenterology 141:1334-45, 2011; Laroui et al., J. Biol. Chem. 286:31003-13, 2011). Furthermore, previous studies have shown that bacteria are required for the initiation of colonic inflammation and subsequent dysplasia and tumorigenesis (Itzkowitz and Yio, Am. J. Physiol. Gastrointest. Liver Physiol. 287:G7-17, 2004). Future studies are warranted to assess the role of PepT1-bacterial interactions in these processes, and whether such interactions contribute to the progression of CAC.

PepT1 = biological target: T1, PepT1 (Homo sapiens, UniProt P46059); conditions: in vitro, Caco-2/BBE cells; cited from earlier work
T1 construct: endogenous in cells; host or cells: Caco-2/BBE cells
T1 sequence (P46059 1-708): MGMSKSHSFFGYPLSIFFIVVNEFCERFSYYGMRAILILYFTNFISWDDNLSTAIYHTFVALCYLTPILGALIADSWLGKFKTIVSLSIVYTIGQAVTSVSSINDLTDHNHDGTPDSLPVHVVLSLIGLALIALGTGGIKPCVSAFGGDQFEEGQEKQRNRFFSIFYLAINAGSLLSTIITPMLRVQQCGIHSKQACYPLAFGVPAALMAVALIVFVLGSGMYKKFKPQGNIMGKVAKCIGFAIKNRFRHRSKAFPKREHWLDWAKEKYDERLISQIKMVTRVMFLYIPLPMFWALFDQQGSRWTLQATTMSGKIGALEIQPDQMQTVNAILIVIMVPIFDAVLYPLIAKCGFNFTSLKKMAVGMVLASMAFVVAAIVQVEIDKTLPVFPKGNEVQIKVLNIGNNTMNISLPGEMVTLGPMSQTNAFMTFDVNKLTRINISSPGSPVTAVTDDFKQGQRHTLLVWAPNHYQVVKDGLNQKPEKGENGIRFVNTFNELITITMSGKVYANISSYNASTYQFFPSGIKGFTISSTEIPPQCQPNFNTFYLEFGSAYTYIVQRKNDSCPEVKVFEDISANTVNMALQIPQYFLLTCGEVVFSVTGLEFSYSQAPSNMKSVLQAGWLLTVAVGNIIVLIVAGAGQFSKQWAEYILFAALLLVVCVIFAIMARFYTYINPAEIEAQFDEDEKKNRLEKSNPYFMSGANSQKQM

[2] = tested on: Caco2-BBE and Jurkat cells; conditions: stimulation with pro-inflammatory cytokines, co-treated with KPV; cited from earlier work
[3] = tested on: AOM/DSS-induced colon tumorigenesis; assay: AOM/DSS-induced colitis-associated cancer (CAC) model, WT mice, with or without KPV; type: in vivo, mouse
Protocol: as §1, §2
H&E Staining of Colonic Tissue: Mouse colons were fixed in 10%-buffered formalin for 24 hours at room temperature and then embedded in paraffin. Tissues were sectioned at 5-μm thickness and stained with hematoxylin & eosin (H&E) using standard protocols. Images were acquired using an Olympus microscope equipped with a DP-23 digital camera.
Immunohistochemistry: Mouse colonic tissues were fixed in formalin and paraffin-embedded. For Ki67, β-catenin and PepT1 staining, sections were deparaffinized. Slides were incubated in sodium citrate buffer (pH 6.0) and cooked in a pressure cooker for 10 minutes for antigen retrieval. Sections were then blocked with 5% goat serum in TBS followed by incubation for one hour with anti-Ki67 (1:100, Vector Laboratories, Burlingame, Calif.), anti-β-catenin (1:1000, Cell Signaling, Danvers, Mass.) or anti-mPepT1 at 37° C. After washing with TBS, sections were treated with appropriate biotinylated secondary antibodies for 30 minutes at 37° C., and color development was performed using the Vectastain ABC kit (Vector Laboratories). Sections were then counterstained with hematoxylin, dehydrated, and then coverslipped. Images were acquired using an Olympus microscope equipped with DP-23 Digital camera. Ki67-positive cells were counted per crypt.
as §3, with “Future studies are warranted to assess the role of PepT1-bacterial interactions in these processes, and whether such interactions contribute to the progression of CAC.” left out

DSS-induced colitis = conditions: previous studies; cited from earlier work
[4] = tested on: myeloid leukemia C1498 cells; conditions: in vivo; cited from earlier work
colon adenocarcinoma = conditions: cited from earlier work
tumor growth = conditions: several studies; cited from earlier work
[5] = tested on: PepT1 expression and colitis in IL-10-/- mice; conditions: compared to vehicle-treated; cited from earlier work
[6] = tested on: tumorigenesis in IL-10-deficient mice; conditions: even after colitis had developed; cited from earlier work
[7] = AOM/DSS + 100 μM KPV in drinking water during both DSS cycles vs AOM/DSS only
[8] = AOM/DSS + 100 μM KPV vs AOM/DSS only

Lys-Pro-Val [KPV]
protection from tumorigenesis [1]: not protected from tumorigenesis
tumor burden [1]: remained unchanged
tumor numbers [1]: remained unchanged
tumor sizes [1]: remained unchanged
transport via PepT1 (PepT1): transported via PepT1
NF-κB activation [2]: attenuated NF-κB activation
pro-inflammatory cytokine production [2]: decreased pro-inflammatory cytokine production
colon tumorigenesis: overall colonic tumor burden [3, 7]: drastic decreases
colon tumorigenesis: tumor numbers [3, 7]: drastic decreases
colon tumorigenesis: tumor sizes [3, 7]: drastic decreases
aberrant crypt foci (H&E-stained colonic sections) [3, 8]: fewer aberrant crypt foci
body weight loss during DSS treatment [3, 8]: lost similar amounts of weight
cellular infiltration (H&E-stained colonic sections) [3, 8]: decreased cellular infiltration
epithelial cell proliferation (Ki67+ cells/crypt) [3, 8]: less epithelial cell proliferation
inflammation (H&E-stained colonic sections) [3, 8]: decreased inflammation
inflammation and DSS-induced colitis (DSS-induced colitis): decreases inflammation and attenuates DSS-induced colitis

CC(C)C[C@H](NC(=O)[C@@H](O)[C@H](N)Cc1ccccc1)C(=O)O [bestatin]
growth of myeloid leukemia C1498 cells [4]: decreases the growth
growth of colon adenocarcinoma (colon adenocarcinoma): inhibits the growth of colon adenocarcinoma
cell proliferation (tumor growth): decreases cell proliferation
tumor growth (tumor growth): ameliorates tumor growth

Lactobacillus plantarum
PepT1 expression and activity [5]: reduced PepT1 expression and activity
colitis [5]: attenuated colitis

B1: IL-10: exogenous anti-inflammatory cytokine IL-10 administered to IL-10-deficient mice (protein, UniProt P18893 19-178, looked up)
Interleukin-10: SRGQYSREDNNCTHFPVGQSHMLLELRTAFSQVKTFFQTKDQLDNILLTDSLMQDFKGYLGCQALSEMIQFYLVEVMPQAEKHGPEIKEHLNSLGEKLKTLRMRLRRCHRFLPCENKSKAVEQVKSDFNKLQDQGVYKAMNEFDIFINCIEAYMMIKMKS
tumorigenesis [6]: tumorigenesis was decreased
